In patent US8592394B2, “Synthetic derivatives beta glycolipids and compositions thereof for the treatment of pathologic disorders” (Enzo Therapeutics, Inc., priority 2003, dated 2013):

What was measured:
B6 splenocytes = assay: In vitro stimulation of splenocytes: [3H] thymidine incorporation (proliferation); format: cell-based, mouse; details: 72-h cultures, graded amounts
Experimental: (§1) Splenocytes were prepared as described above and plated at 2.0×10^5 cells per well in 96-well plates in RPMI-1640 supplemented with 5% FCS, […] 2-mercaptoethanol, 2 mM glutamine, 1% sodium pyruvate, and antibiotics. Titrated volumes of GC, α-GalCer, and ALIB-97 diluted in DMSO were added at final concentrations of 100 ng, 1 μg, and 10 μg/ml. After 72 h of culture, 1 μCi of [^3H] thymidine (Amersham Biosciences) was added to each well, and the cells were cultured for an additional 16 to 18 h. Cells were harvested with a cell harvester (Tomtec, Orange, Conn.), and the uptake of radioactivity was measured with a β-plate reader. To evaluate IFN-γ secretion in vitro, supernatants were harvested after 90 h of culture with glycolipids and stored until the cytokine levels were measured by ELISA.

liver = details: mice, cited from earlier work
fat-associated T cells = assay: Flow cytometry of T cell subsets in adipose tissue, stromal vascular cells and spleen of ob/ob mice; format: in vivo; details: 15 and 45 μg per os daily 4 weeks
Experimental: Splenocytes and intrahepatic lymphocytes were isolated as follows: livers and spleens were kept in RPMI-1640+FCS. Then spleens were crushed through a 70 μm nylon cell strainer (Falcon) and centrifuged (1250 rpm for 7 min) for the removal of cell debris. Red blood cells were lysed with 1 ml of cold 155 mM ammonium chloride lysis buffer and centrifuged (1250 rpm for 3 min). Splenocytes were resuspended with 1 ml RPMI+FCS. Cell viability by trypan blue staining was above 90%. For intrahepatic lymphocytes, livers were crushed through a stainless mesh (size 60, Sigma) and the cell suspension was placed in a 50-ml tube for 5 min. Lymphoprep (10 ml, Ficoll, Axis-Shield PoC AS, Oslo, Norway) was placed under similar volume of cell suspension in 50-ml tubes. Tubes were centrifuged at 1800 rpm for 18 min. Cells in the interface were collected and centrifuged at 1800 rpm for 10 min, to obtain a pellet of cells depleted of hepatocytes to a final volume of 250 μl. Approximately 1×10^6 cells/mouse liver, were recovered.
Adipose tissue (visceral fat pads) was minced and incubated in Krebs-Ringer bicarbonate buffer (3 mL/g adipose tissue) containing 10mM glucose and 2.5% bovine serum albumin, incubated with 840 U/g collagenase type I (Sigma, Rehovot, Israel)) at 37° C. for 1 hour. Cells were filtered twice through chiffon mesh (100 μm) and centrifuged 50 g for 5 min. Floating adipocytes were separated from pelleted S/V fraction. The infranatant fraction was removed and centrifuged at 200 g for five minutes to pellet the S/V cells.
For metabolic syndrome experiments, the following antibodies were used for flow cytometry: anti-CD4-Pacific Blue, anti-CD8-FITC, anti-IL-17-PE, anti CD25-PercP-Cy5.5 and anti FOX3p PE-Cy725 (all from eBioscience, San Diego, Calif.). Surface staining was performed by incubating cells with antibodies and anti-CD16/32 (blocks Fc, eBioscience) at 4° C. in FACS buffer containing PBS and 0.5% BSA, for 30 min. Cells were washed twice with FACS buffer, resuspended in FACS buffer, and analyzed by flow cytometry. Appropriate isotype controls were used in all experiments. Intracellular staining was performed using Foxp3 staining buffer kit (eBioscience, San Diego, Calif.). Cells were incubated with 1 ml Fixation/Permeabilization solution for 50 min, washed twice with Permeabilization buffer and incubated with anti-Foxp3 Ab for 50 min. Cells were then washed twice with Permeabilization buffer and resuspended with FACS buffer. Analysis was performed using a FACSCalibur instrument (Becton Dickinson, San Jose, Calif.) with FCS express V.3 software (DeNovo software, Los Angeles, Calif.).
(§2) Therefore, five groups of male C57BL/6 Ob/Ob mice were studied. Mice (6 per group) were fed (per os) daily for 4 weeks with 15 or 45 μg of GC (groups B and C, respectively) and 15 or 45 μg of ALIB-97 (groups D and E, respectively). Control mice (Group A) were administered vehicle only.

AKT = assay: Western blot of liver extracts of ob/ob mice: AKT activation; format: in vivo; details: per os daily 4 weeks, 45 μg (group C)
Experimental: (§3) For analysis of whole tissue lysates, snap-frozen liver pieces were homogenized in 0.75 ml of ice-cold PBS and centrifuged at 4° C. for 5 min in 2000 rpm. Pellets were lysed with 50 mM beta glycerophosphate, 1.5 mM EGTA, PH 7.3, 1 mM EDTA, PH 7.3, 1 mM DTT, 0.1 mM Sodium vanadate, 1% NP-40, and cocktails of protease and phosphatase (Sigma, Rehovot, Israel).
(§4) Lysates were centrifuged twice at 4° C. for 10 minutes in 14000 rpm. Equivalent amounts of lysates (15 μg/lane), determined by Bradford assay (Bio-Rad, Rehovot, Israel), were separated by sodium dodecyl sulfate polyacrylamide gel electrophoresis (SDS-PAGE) and transferred to nitrocellulose membranes.
(§5) For metabolic syndrome experiments, proteins were detected with JNK-2, Phospho JNK (Thr183/Tyr185), Akt and phospho Akt (Ser 473) antibodies (Cell Signaling Technologies, MA). β-actin (abcam, UK) was used as the loading control.
(§6) Blots were developed with horseradish peroxidase-conjugated secondary antibodies (Jackson Laboratories Bar Harbor, Me.) and Western Blot-Luminol Reagent (Santa Cruz Biotechnology, CA, USA). Cell counting and western Blot quantification was performed using total Lab (Phoretix, USA) software.
(§7) Therefore, five groups of male C57BL/6 Ob/Ob mice were studied. […]

mouse splenocytes = assay: In vitro stimulation of splenocytes: supernatant IFN-γ by ELISA; format: cell-based; details: CD1d−/− splenocytes
Experimental: as §1

JNK2 = assay: Western blot of liver extracts of ob/ob mice: JNK2 activation; format: in vivo; details: per os daily 4 weeks, 45 μg (group C)
Experimental: as §3, §4, §5, §6, §7

[1] = humans, preliminary data; cited from earlier work
ob/ob mice [2] = assay: Serum ALT and AST (hepatic injury) in ob/ob mice; format: in vivo; details: day 30, 45 μg per os daily, vehicle group A 710
Experimental: The effect of β-glycolipids on liver injury was evaluated by serum aspartyl transaminase (AST) and alanine aminotransferase (ALT) activities, which were determined by a clinical chemistry analyzer, Reflovet Plus (Roche Diagnostics, GmbH, Mannheim, Germany).
as §2

ob/ob mice [3] = assay: Fasting glucose and glucose tolerance test in ob/ob mice; format: in vivo
Experimental: Mice underwent a glucose tolerance test (GTT) on day 30 after overnight fasting. Glucose was administered orally (1.25 g per kg). Serum glucose measurements were performed on tail-vein blood every 15 min for 3 h. Glucose levels were measured by a standard glucometer.
as §2

| Compound | cell proliferation ([3H] thymidine incorporation) (B6 splenocytes) | hepatotoxicity (liver) | CD4+IL17+ / CD4+CD25+ ratio in adipose tissue (fat-associated T cells) | CD4IL17/CD4CD25FOXP3 ratio in the SVC (fat-associated T cells) | CD4IL17/CD4CD25FOXP3 ratio in the spleen (fat-associated T cells) | CD4IL17/CD4CD25 ratio in the spleen (fat-associated T cells) | ratio between CD4+IL17+ and CD4+CD25+FOXP3+ cells in adipose tissue (fat-associated T cells) | increase of AKT activation (AKT) [%] | IFN-γ secretion (mouse splenocytes) | activation of JNK2 (JNK2) [%] | liver injury (liver; oral administration) | safety and biological activity [1] | serum AST (ob/ob mice [2]) [u/L] | time at which the decrease in glucose levels (GTT, relative to time 0) reached statistical significance (ob/ob mice [3]; day 30, 15 μg per os daily) [min] | time at which the decrease in glucose levels (GTT, relative to time 0) reached statistical significance (ob/ob mice [3]; day 30, 45 μg per os daily) [min] |
| --- | --- | --- | --- | --- | --- | --- | --- | --- | --- | --- | --- | --- | --- | --- | --- |
| CCCCCCCCCCCCCCCCCCCCCCCCCC(=O)N[C@@H](CO[C@H]1O[C@H](CO)[C@H](O)[C@H](O)[C@H]1O)[C@H](O)[C@H](O)CCCCCCCCCCCCCC [αGalCer, α-Galctosyl-ceramide] | induced | hepatotoxic |  |  |  |  |  |  |  |  |  |  |  |  |  |
| β-glucosylceramide [GC, reference compound] |  |  | reversal | reduction | reduction | reduction | dose dependent shift towards tolerance | 43 | capable of activating | 60 | not associated with liver injury | safe and biologically active | 330 | 120 | 120 |
